# Test results published in US20130029961A1, “Substituted Heterocyclic Aza Compounds” (Gruenenthal GmbH, priority 2011, published 2013).
# Biological target: T1, TRPV1 human (Homo sapiens, UniProt Q8NER1)
# T1 construct: expressed in transfected cells; host or cells: CHO K1 cells
# Experiment: Functional FLIPR Ca2+ influx assay on vanilloid receptor 1 (VR1/TRPV1), capsaicin stimulus
# Assay type: cell-based
# Parameters: key to TRPV1 human (f) CAP, agonist (AG): AG denotes agonist
# Settings: functional (f), vs capsaicin (CAP); Ki from IC50 by Cheng-Prusoff
# T1 sequence (Q8NER1 whole entry): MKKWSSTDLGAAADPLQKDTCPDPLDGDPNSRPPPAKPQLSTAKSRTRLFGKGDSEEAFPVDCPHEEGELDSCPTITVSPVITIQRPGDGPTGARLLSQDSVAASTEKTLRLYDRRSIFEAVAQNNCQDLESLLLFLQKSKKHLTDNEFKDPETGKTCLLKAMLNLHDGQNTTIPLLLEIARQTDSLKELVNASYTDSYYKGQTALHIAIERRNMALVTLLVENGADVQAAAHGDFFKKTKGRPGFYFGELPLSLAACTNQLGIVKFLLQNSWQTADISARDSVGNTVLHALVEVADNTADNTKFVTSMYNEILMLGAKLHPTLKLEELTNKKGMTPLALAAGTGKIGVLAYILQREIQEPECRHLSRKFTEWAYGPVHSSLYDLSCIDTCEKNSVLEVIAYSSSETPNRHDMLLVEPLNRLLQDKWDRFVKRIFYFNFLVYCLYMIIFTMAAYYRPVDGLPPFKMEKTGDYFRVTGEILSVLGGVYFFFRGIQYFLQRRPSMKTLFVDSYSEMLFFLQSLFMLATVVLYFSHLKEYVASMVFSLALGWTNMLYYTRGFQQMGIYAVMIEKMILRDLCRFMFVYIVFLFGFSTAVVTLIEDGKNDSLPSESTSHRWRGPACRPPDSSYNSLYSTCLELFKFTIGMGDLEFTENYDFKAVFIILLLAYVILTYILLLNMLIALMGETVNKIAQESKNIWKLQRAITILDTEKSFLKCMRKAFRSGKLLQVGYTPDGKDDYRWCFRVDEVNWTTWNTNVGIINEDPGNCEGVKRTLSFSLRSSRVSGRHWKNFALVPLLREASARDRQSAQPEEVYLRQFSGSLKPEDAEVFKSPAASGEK
row,SMILES,Ki [nM]
1,O=C(Cc1ccccn1)NCc1ccc(C(F)(F)F)nc1-c1cccc(Cl)c1 [compound 5],91
2,O=C(Cc1ccccn1)NCc1ccc(C(F)(F)F)nc1N1CCCC1 [compound 10],73
3,CC1CCN(c2nc(C(F)(F)F)ccc2CNC(=O)C(C)c2ccccn2)CC1 (stereo not drawn) [compound 14],45
4,CC1CCN(c2nc(C(F)(F)F)ccc2CNC(=O)Cc2cccnc2)CC1 [compound 31],6
5,CC1CCN(c2nc(C(F)(F)F)ccc2CNC(=O)Cc2cnccn2)CC1 [compound 40],107
6,CC1CCN(c2nc(C(F)(F)F)ccc2CNC(=O)Nc2ccnnc2)CC1 [compound 42],9
7,CC1CCN(c2nc(C(F)(F)F)ccc2CNC(=O)Nc2ccc(CO)nc2)CC1 [compound 55],11
8,CC1CCN(c2nc(C(F)(F)F)ccc2CNC(=O)C(C)c2ccc(C(=O)Nc3ccccc3)nc2)CC1 (stereo not drawn) [compound 75],57
9,CC1CCN(c2nc(C(F)(F)F)ccc2CNC(=O)C(C)c2cnc(C(=O)Nc3ccccc3)nc2)CC1 (stereo not drawn) [compound 76],77
10,CCNc1nc(C(F)(F)F)ccc1CNC(=O)C(C)c1cnc(C(=O)Nc2ccc(F)cc2)nc1 (stereo not drawn) [compound 77],80
11,CC(C(=O)NCc1ccc(C(F)(F)F)nc1N1CCCC1)c1cnc(C(=O)Nc2ccc(F)cc2)nc1 (stereo not drawn) [compound 78],42
12,CC(C(=O)NCc1ccc(C(F)(F)F)nc1N1CCOCC1)c1cnc(C(=O)Nc2ccc(F)cc2)nc1 (stereo not drawn) [compound 80],60
13,COCCNc1ccc(C(C)C(=O)NCc2ccc(C(F)(F)F)nc2N2CCC(C)CC2)cn1 (stereo not drawn) [compound 87],27
14,CC1CCN(c2nc(C(F)(F)F)ccc2CNC(=O)C(C)c2ccc(NC(=O)c3ccccc3)nc2)CC1 (stereo not drawn) [compound 98],63
15,CC1CCN(c2nc(C(F)(F)F)ccc2CNC(=O)Nc2cnc(N(C)C)c(C(F)(F)F)c2)CC1 [compound 104],9
16,CC1CCN(c2nc(C(F)(F)F)ccc2CNC(=O)Nc2ccc(N3CCC3)nc2)CC1 [compound 105],27
17,COc1cc(NC(=O)NCc2ccc(C(F)(F)F)nc2N2CCC(C)CC2)cnc1N1CCC1 [compound 107],81
18,COc1ccc(C(C)C(=O)NCc2ccc(C(F)(F)F)nc2N2CCC(C)CC2)cn1 (stereo not drawn) [compound 120],44
19,CC1CCN(c2nc(C(F)(F)F)ccc2CNC(=O)Nc2ccc(OCCO)nc2)CC1 [compound 123],11
20,COCCOc1ccc(NC(=O)NCc2ccc(C(F)(F)F)nc2N2CCC(C)CC2)cn1 [compound 124],4
21,CC1CCN(c2nc(C(F)(F)F)ccc2CNC(=O)Nc2cncc(CO)c2)CC1 [compound 126],26
22,CC1CCN(c2nc(C(F)(F)F)ccc2CNC(=O)Nc2ccc(CO)cn2)CC1 [compound 127],61
23,CC1CCN(c2nc(C(F)(F)F)ccc2CNC(=O)Nc2ccncc2CO)CC1 [compound 128],69
24,O=C(NCc1ccc(C(F)(F)F)nc1-c1cccc(F)c1)Nc1ccc(NCCO)nc1 [compound 130],15
25,O=C(NCc1ccc(C(F)(F)F)nc1-c1cncc(Cl)c1)Nc1ccc(NCCO)nc1 [compound 131],29

# Next, values leading:
row,Ki [nM],SMILES
1,7,CC1CCN(c2nc(C(F)(F)F)ccc2CNC(=O)Cc2ccccn2)CC1 [compound 13]
2,35,CC1CCN(c2nc(C(F)(F)F)ccc2CNC(=O)Nc2ccccn2)CC1 [compound 19]
3,10,CC1CCN(c2nc(C(F)(F)F)ccc2CNC(=O)C(C)c2cccnc2)CC1 (stereo not drawn) [compound 32]
4,11,CC1CCN(c2nc(C(F)(F)F)ccc2CNC(=O)Cc2ccncn2)CC1 [compound 39]
5,38,CC1CCN(c2nc(C(F)(F)F)ccc2CNC(=O)Cc2cncnc2)CC1 [compound 47]
6,6,CC1CCN(c2nc(C(F)(F)F)ccc2CNC(=O)Nc2cnc(CCS(C)(=O)=O)c(F)c2)CC1 [compound 67]
7,11,CC(C(=O)NCc1ccc(C(F)(F)F)nc1N1CCCCC1)c1cnc(C(=O)Nc2ccc(F)cc2)nc1 (stereo not drawn) [compound 79]
8,5,Cc1cccc(-c2nc(C(F)(F)F)ccc2CNC(=O)C(C)c2cnc(C(=O)Nc3ccc(F)cc3)nc2)c1 (stereo not drawn) [compound 81]
9,50,CC1CCN(c2nc(C(F)(F)F)ccc2CNC(=O)C(C)c2ccc(N)c(Br)n2)CC1 (stereo not drawn) [compound 84]
10,2,CC1CCN(c2nc(C(F)(F)F)ccc2CNC(=O)C(C)c2ccc(NCCO)nc2)CC1 (stereo not drawn) [compound 85]
11,1,CC1CCN(c2nc(C(F)(F)F)ccc2CNC(=O)Nc2ccc(NCCO)nc2)CC1 [compound 86]
12,16,COCCNc1ccc(NC(=O)NCc2ccc(C(F)(F)F)nc2N2CCC(C)CC2)cn1 [compound 88]
13,53,CC1CCN(c2nc(C(F)(F)F)ccc2CNC(=O)C(C)c2ccc(N(C)CCO)nc2)CC1 (stereo not drawn) [compound 89]
14,19,CC1CCN(c2nc(C(F)(F)F)ccc2CNC(=O)Nc2ccc(N(C)CCO)nc2)CC1 [compound 90]
15,1,CC1CCN(c2nc(C(F)(F)F)ccc2CNC(=O)C(C)c2cnc(NS(C)(=O)=O)c(F)c2)CC1 (stereo not drawn) [compound 96]
16,2,COc1cc(C(C)C(=O)NCc2ccc(C(F)(F)F)nc2N2CCC(C)CC2)cnc1NS(C)(=O)=O (stereo not drawn) [compound 97]
17,9,CC1CCN(c2nc(C(F)(F)F)ccc2CNC(=O)C(C)c2ccc(NC(=O)c3ccc(Cl)cc3)nc2)CC1 (stereo not drawn) [compound 99]
18,12,CC1CCN(c2nc(C(F)(F)F)ccc2CNC(=O)Nc2ccc(N3CC(O)C3)nc2)CC1 [compound 108]
19,12,CC1CCN(c2nc(C(F)(F)F)ccc2CNC(=O)Nc2ccc(N3CCCC3)nc2)CC1 [compound 114]
20,78,COc1cc(NC(=O)NCc2ccc(C(F)(F)F)nc2N2CCC(C)CC2)cnc1N1CCCC1 [compound 116]
21,9,CC1CCN(c2nc(C(F)(F)F)ccc2CNC(=O)Nc2ccc(N3CC[C@H](O)C3)nc2)CC1 [compound 117]
22,10,CC1CCN(c2nc(C(F)(F)F)ccc2CNC(=O)Nc2ccc(N3CC[C@@H](O)C3)nc2)CC1 [compound 118]
23,39,CC1CCN(c2nc(C(F)(F)F)ccc2CNC(=O)Nc2ccc(C(O)CO)nc2)CC1 (stereo not drawn) [compound 129]

# Same assay, conditions: inhibition at 1 μM compound, capsaicin (CAP)
row,"TRPV1 human (f) CAP, inhibition (as a percentage) @ 1 μM [% @ 1 μM]",SMILES
1,12,COCCN(C)c1ccc(NC(=O)NCc2ccc(C(F)(F)F)nc2N2CCC(C)CC2)cn1 [compound 91]

# Same assay, conditions: inhibition at 5 μM compound, capsaicin (CAP)
row,"TRPV1 human (f) CAP, inhibition (as a percentage) @ 5 μM [% @ 5 μM]",SMILES
1,48,O=C(Cc1ccccn1)NCc1ccc(C(F)(F)F)nc1-c1ccc(F)c(Cl)c1 [compound 6]

# Same assay, conditions: inhibition at 5 μM compound, capsaicin (CAP); read-out: TRPV1 human (f) CAP, inhibition (as a percentage) @ 5 μM
row,SMILES,inhibition at 5 µM [%]
1,CCCCNc1nc(C(F)(F)F)ccc1CNC(=O)Cc1ccccn1 [compound 9],23
2,COCCOCc1nc(C(F)(F)F)ccc1CNC(=O)Cc1ccccn1 [compound 24],13
3,CC1CCN(c2nc(C(F)(F)F)ccc2CNC(=O)Cc2ncccn2)CC1 [compound 41],39

# Now from value to compound:
row,inhibition at 5 µM [%],SMILES
1,18,Cc1cccc(-c2nc(C(F)(F)F)ccc2CNC(=O)Cc2ccccn2)c1 [compound 7]
2,39,COc1cccc(-c2nc(C(F)(F)F)ccc2CNC(=O)Cc2ccccn2)c1 [compound 8]
3,32,O=C(Cc1ccccn1)NCc1ccc(C(F)(F)F)nc1N1CCOCC1 [compound 22]
4,34,CC(C(=O)NCc1ccc(C(F)(F)F)nc1N1CCOCC1)c1ccc(NS(C)(=O)=O)nc1 (stereo not drawn) [compound 95]

# Same assay, conditions: printed in the Ki column instead of a value
row,"TRPV1 human (f) CAP, agonist (AG)",SMILES
1,AG,CC1CCN(c2nc(C(F)(F)F)ccc2CNC(=O)Cc2ccncc2)CC1 [compound 38]
2,AG,CC1CCN(c2nc(C(F)(F)F)ccc2CNC(=O)C(C)c2ccc(Cl)nc2)CC1 (stereo not drawn) [compound 49]
3,AG,CC1CCN(c2nc(C(F)(F)F)ccc2CNC(=O)C(C)c2ccc(C(N)=O)nc2)CC1 (stereo not drawn) [compound 74]
